Data from patent publication US20050209157A1, “Short bioactive peptides and methods for their use” (priority 2001, published 2005).
In brackets after ≈: the same amount, converted by molar mass. Where two headings read alike, the source gives them in different places. No end group written: not given here.

Legend:
[1] = system: Candida tropicalis ATCC13803; assay: Antimicrobial assays II, NCCLS broth microdilution MIC; type: cell-based; conditions: Table 10
Method: Anti-microbial activity against a broader range of pathogens (including clinical strains) than were tested in Example 2. It should be noted that somewhat different protocols were employed for the assays in Example 2 and Example 3.
MICs were determined for this Example using a slightly modified version of the NCCLS (National Committee for Clinical Laboratory Standards) broth microdilution method as described previously (Steinberg et al., AAC 41: 1738, 1997). Briefly, antimicrobial agents were prepared as 10× concentrates in the most appropriate solvent. For the peptide, 0.01% acetic acid containing 0.2% bovine serum albumin as a carrier protein was used. Inocula were prepared by resuspending colonies from a BAP in medium and adjusting the suspension to match that of a 0.5 McFarland standard. The suspension was diluted into fresh medium (as recommended by NCCLS for the organism) to give 2×10^5 to 7×10^5 CFU/ml for bacteria or 2×10^3 to 7×10^3 CFU/ml for Candida. After dispensing 100 μl aliquots of the microbial suspension into each well of a 96-well polypropylene microtiter plate, 11 μl of test compound was added. […] For facultative anaerobes incubation was performed in 7% carbon dioxide and for strict anaerobes in an oxygen free environment maintained using a standard anaerobic “jar”. All MICs were performed three times and the mean value determined.

S. aureus (MRSA) = type: cell-based, Staphylococcus aureus; conditions: in µg/mL
E. coli UB1005 = type: cell-based, Escherichia coli
P. aeruginosa H374 = type: cell-based, Pseudomonas aeruginosa; conditions: Table 14; in µg/mL
[2] = system: Candida glabrata ATCC15126; assay: Antimicrobial assays II, NCCLS broth microdilution MIC; type: cell-based; conditions: Table 10; in µg/mL
S. epidermidis C621 = type: cell-based, Staphylococcus epidermidis; conditions: Table 15
[3] = system: Pseudomonas aeruginosa H187; type: cell-based; conditions: in µg/mL
Candida albicans 105 = type: cell-based; conditions: in µg/mL
S. typhimurium 14028S = type: cell-based, Salmonella typhimurium
Staph. aureus 29213 = assay: microbe, parasite or virus in culture; conditions: for MBC: Staphylococcus aureus, 29213, read-out: MBC, Without peptide; for MBC, With 5 μg/mL peptide: with 5 μg/mL peptide Shiva-10
Text: This experiment determined the peptide MBC in the absence of the antimicrobial agent, or in the presence of the indicated concentration of antimicrobial agent

| Molecule | MIC C. tropicalis ATCC13803 [1] | MIC S. aureus SAP0017 (S. aureus (MRSA); Table 11, strain SAP0017) | MIC S. aureus SAP0017 (S. aureus (MRSA); Table 15, strain SAP0017) | MIC E. coli UB1005 (E. coli UB1005; Table 11) | MIC E. coli UB1005 (E. coli UB1005; Table 14) | MIC P. aeruginosa H374 (P. aeruginosa H374) | MIC C. glabrata ATCC15126 [2] | MIC S. epidermidis C621 (S. epidermidis C621) | MIC P. aeruginosa H187 ([3]; Table 11) | MIC P. aeruginosa H187 ([3]; Table 15) | MIC C. albicans 105 (Candida albicans 105; Table 10) | MIC C. albicans 105 (Candida albicans 105; Table 15) | MIC S. typhimurium 14028S (S. typhimurium 14028S; Table 11) | MIC S. typhimurium 14028S (S. typhimurium 14028S; Table 14) | MBC (Staph. aureus 29213) | MBC, With 5 μg/mL peptide (Staph. aureus 29213) |
| --- | --- | --- | --- | --- | --- | --- | --- | --- | --- | --- | --- | --- | --- | --- | --- | --- |
| FALALKALKK-NH2 [P169 (130)] | 8 µg/mL | >128 | >128 | 32 µg/mL | 64 µg/mL | 128 | 128 | 32 µg/mL | 128 | >128 | 64 | 64 | 64 µg/mL | 64 µg/mL | – | – |
| FALAKKALKKAKKAL-NH2 [P40 (22)] | 1 µg/mL | >128 | – | 64 µg/mL | – | – | 32 | – | >128 | – | 32 | – | > 128 µg/mL | – | – | – |
| FAKKLAKKAKLAKKL-NH2 [P77 (53)] | 1 µg/mL | >128 | – | 64 µg/mL | – | – | 64 | – | 64-128 | – | 16 | – | > 128 µg/mL | – | – | – |
| FKLAFKLAKKAFL-NH2 [P122 (84)] | 4 µg/mL | 128 | – | 64 µg/mL | – | – | 64 | – | 32-128 | – | 32 | – | 128 µg/mL | – | – | – |
| FAKKLKKLAKKL-NH2 [P79 (54)] | 2 µg/mL | >128 | – | 32 µg/mL | – | – | 128 | – | >128 | – | 32 | – | > 128 µg/mL | – | – | – |
| FAKKLAKLAKKL-NH2 [P106 (70)] | 2 µg/mL | >128 | – | 64 µg/mL | – | – | 64 | – | >128 | – | 32 | – | > 128 µg/mL | – | – | – |
| FAKLLAKALKLKL-NH2 [P101 (65)] | 4 µg/mL | 128 | – | 32 µg/mL | – | – | 32 | – | 32-128 | – | 32 | – | 128 µg/mL | – | – | – |
| NC[C@H]1O[C@H](O[C@H]2[C@H](O)[C@@H](O[C@H]3O[C@H](CO)[C@@H](O)[C@H](N)[C@H]3O)[C@H](N)C[C@@H]2N)[C@H](N)C[C@@H]1O [Tobramycin] | – | – | – | – | – | – | – | – | – | – | – | – | – | – | 25 µg/mL (≈ 53.5 µM) | 10 µg/mL (≈ 21.4 µM) |
| FAKKALKALKKL-NH2 [P47 (29)] | 1 µg/mL | >128 | – | 64 µg/mL | – | – | 64 | – | 64-128 | – | 32 | – | > 128 µg/mL | – | – | – |
| FAKLLAKFLKKAL-NH2 [P113 (77)] | 4 µg/mL | 32 | – | 32 µg/mL | – | – | 32 | – | 32-128 | – | 32 | – | 44 µg/mL | – | – | – |
| FAKLLAKLAKKL-NH2 [P49 (31)] | 2 µg/mL | 64 | – | 32 µg/mL | – | – | 16 | – | 16-64 | – | 16 | – | 64 µg/mL | – | – | – |
| VAKLLAKLAKKVL-NH2 [P154 (116)] | 8 µg/mL | >128 | – | 64 µg/mL | – | – | 128 | – | >128 | – | 64 | – | > 128 µg/mL | – | – | – |
| FAKLLAKALKKL-NH2 [P103 (67)] | 2 µg/mL | 64 | – | 32 µg/mL | – | – | 16 | – | 64 | – | 16 | – | 128 µg/mL | – | – | – |
| FAKKLAKKLAKAL-NH2 [P74 (50)] | 1 µg/mL | >128 | – | 16 µg/mL | – | – | 16 | – | 32-128 | – | 16 | – | 64 µg/mL | – | – | – |
| FALALKLAKKAL-NH2 [P167 (128)] | 8 µg/mL | 128 | – | 32 µg/mL | – | – | 128 | – | 128 | – | 64 | – | 64 µg/mL | – | – | – |
| CC1(C)S[C@@H]2[C@H](NC(=O)[C@H](N)c3ccccc3)C(=O)N2[C@H]1C(=O)O [Ampicillin] | – | – | – | – | – | – | – | – | – | – | – | – | – | – | 5 µg/mL (≈ 14.3 µM) | 2.5 µg/mL (≈ 7.15 µM) |
